Data: US20240270762A1, “PENICILLIN-BINDING PROTEIN INHIBITORS” (priority 2021, published 2024)
Values after ≈ are worked out from the molar mass of the structure shown.

Experiments:
E. coli AG100 = assay: microbe, parasite or virus in culture; assay type: cell-based; conditions: Escherichia coli, AG100, read-out: MIC E. coli AG100
N. gonorrhoeae MS11 = assay: Liquid broth MIC in Fastidious broth; conditions: Neisseria gonorrhoeae, MS11, read-out: Minimum Inhibitory Concentration (MIC), N. gonorrhoeae MS11
N. gonorrhoeae FA1090 = assay: Liquid broth MIC in Fastidious broth; conditions: Neisseria gonorrhoeae, FA1090, read-out: Minimum Inhibitory Concentration (MIC), N. gonorrhoeae FA 1090
K. pneumoniae SI-117 = assay: microbe, parasite or virus in culture; assay type: cell-based; conditions: Klebsiella pneumoniae, SI117, read-out: MIC K. pneumoniae SI-117
P. aeruginosa ATCC 35151 = assay: microbe, parasite or virus in culture; assay type: cell-based; conditions: Pseudomonas aeruginosa, ATCC35151, read-out: MIC P. aeruginosa ATCC 35151
K. pneumoniae UMM = assay: microbe, parasite or virus in culture; assay type: cell-based; conditions: Klebsiella pneumoniae, read-out: MIC K. pneumoniae UMM
E. coli 901C = assay: microbe, parasite or virus in culture; assay type: cell-based; conditions: Escherichia coli, read-out: MIC E. coli 901C
P. aeruginosa ATCC 27853 = assay: microbe, parasite or virus in culture; assay type: cell-based; conditions: Pseudomonas aeruginosa, ATCC27853, read-out: MIC P. aeruginosa ATCC 27853
N. gonorrhoeae WHO K = assay: Liquid broth MIC in Fastidious broth; conditions: Neisseria gonorrhoeae, read-out: Minimum Inhibitory Concentration (MIC), N. gonorrhoeae WHO K
N. gonorrhoeae WHO L = assay: Liquid broth MIC in Fastidious broth; conditions: Neisseria gonorrhoeae, read-out: Minimum Inhibitory Concentration (MIC), N. gonorrhoeae WHO L
N. gonorrhoeae WHO G = assay: Liquid broth MIC in Fastidious broth; conditions: Neisseria gonorrhoeae, read-out: Minimum Inhibitory Concentration (MIC), N. gonorrhoeae WHO G
E. coli D22 = assay: microbe, parasite or virus in culture; assay type: cell-based; conditions: Escherichia coli, D22, read-out: MIC E. coli D22
N. gonorrhoeae WHO Z = assay: Liquid broth MIC in Fastidious broth; conditions: Neisseria gonorrhoeae, read-out: Minimum Inhibitory Concentration (MIC), N. gonorrhoeae WHO Z
[1] = molecular target: T1, PBP2 from Neisseria gonorrhoeae (FA19) (Neisseria gonorrhoeae, UniProt P08149); assay: Bocillin-FL fluorescence polarization competition binding, N. gonorrhoeae PBP2; conditions: fluorescence polarization competition binding assay using Bocillin-FL, read-out: N. gonorrhoeae PBP2 Potency
T1 construct: made in house
Summary of the method: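 Fluorescence polarization competition with 0.1 μM Bocillin-FL (fluorescent penicillin V) against 0.25 μM N. gonorrhoeae FA19 PBP2 in 50 mM Hepes pH 8.0, 300 mM NaCl, 10% glycerol. Boronic acid inhibitors were preincubated with PBP, then Bocillin-FL was added and FP read (490/520 nm) up to 60 min. EC50 is the concentration halving PBP-bound Bocillin-FL.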

T1 sequence (P08149 whole entry): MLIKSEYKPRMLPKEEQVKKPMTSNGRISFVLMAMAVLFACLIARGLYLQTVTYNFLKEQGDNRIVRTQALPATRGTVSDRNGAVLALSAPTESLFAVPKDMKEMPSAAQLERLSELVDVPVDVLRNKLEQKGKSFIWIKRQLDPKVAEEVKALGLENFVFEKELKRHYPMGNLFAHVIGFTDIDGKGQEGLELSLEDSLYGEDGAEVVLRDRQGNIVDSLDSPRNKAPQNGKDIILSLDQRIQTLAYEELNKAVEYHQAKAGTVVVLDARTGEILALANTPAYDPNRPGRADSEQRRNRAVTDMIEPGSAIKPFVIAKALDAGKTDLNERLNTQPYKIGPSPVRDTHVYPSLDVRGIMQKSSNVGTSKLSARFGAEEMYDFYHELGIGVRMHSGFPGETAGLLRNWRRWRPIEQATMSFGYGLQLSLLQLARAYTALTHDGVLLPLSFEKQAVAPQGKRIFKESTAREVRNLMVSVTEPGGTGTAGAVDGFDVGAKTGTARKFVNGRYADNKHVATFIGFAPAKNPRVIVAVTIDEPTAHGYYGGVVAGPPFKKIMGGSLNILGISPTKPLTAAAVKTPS

Structure (SMILES)	MIC (E. coli AG100)	MIC (N. gonorrhoeae MS11)	MIC (N. gonorrhoeae FA1090)	MIC (K. pneumoniae SI-117)	MIC (P. aeruginosa ATCC 35151)	MIC (K. pneumoniae UMM)	MIC (E. coli 901C)	MIC (P. aeruginosa ATCC 27853)	MIC (N. gonorrhoeae WHO K)	MIC (N. gonorrhoeae WHO L)	MIC (N. gonorrhoeae WHO G)	MIC (E. coli D22)	MIC (N. gonorrhoeae WHO Z)	EC50 [1]
CS(=O)(=O)N1CCC[C@H]1C(=O)N[C@H](C(=O)N[C@H]1Cc2cccc(C(=O)O)c2OB1O)c1ccc(P(=O)(O)O)cc1 [Example 43, (R)-2-hydroxy-3-((S)-2-((S)-1-(methylsulfonyl)pyrrolidine-2-carboxamido)-2-(4-phosphonophenyl)acetamido)-3,4-dihydro-2H-benzo[e][1,2]oxaborinine-8-carboxylic acid]	> 128 µg/mL	4 to 8 µg/mL (≈ 6.72 to 13.4 µM)	1 to 2 µg/mL (≈ 1.68 to 3.36 µM)	> 128 µg/mL	8 to 16 µg/mL (≈ 13.4 to 26.9 µM)	> 128 µg/mL	8 to 16 µg/mL (≈ 13.4 to 26.9 µM)	> 128 µg/mL	16 to 32 µg/mL (≈ 26.9 to 53.8 µM)	16 to 32 µg/mL (≈ 26.9 to 53.8 µM)	4 to 8 µg/mL (≈ 6.72 to 13.4 µM)	32 to 64 µg/mL (≈ 53.8 to 108 µM)	4 to 8 µg/mL (≈ 6.72 to 13.4 µM)	50 to 250 µM
CS(=O)(=O)N1CCC[C@H]1C(=O)N[C@@H](C(=O)N[C@H]1Cc2cccc(C(=O)O)c2OB1O)c1ccc(P(=O)(O)O)cc1 [Example 44, (R)-2-hydroxy-3-((R)-2-((S)-1-(methylsulfonyl)pyrrolidine-2-carboxamido)-2-(4-phosphonophenyl)acetamido)-3,4-dihydro-2H-benzo[e][1,2]oxaborinine-8-carboxylic acid]	> 128 µg/mL	1 to 2 µg/mL (≈ 1.68 to 3.36 µM)	< 1 µg/mL	> 128 µg/mL	2 to 4 µg/mL (≈ 3.36 to 6.72 µM)	> 128 µg/mL	2 to 4 µg/mL (≈ 3.36 to 6.72 µM)	> 128 µg/mL	4 to 8 µg/mL (≈ 6.72 to 13.4 µM)	16 to 32 µg/mL (≈ 26.9 to 53.8 µM)	1 to 2 µg/mL (≈ 1.68 to 3.36 µM)	8 to 16 µg/mL (≈ 13.4 to 26.9 µM)	1 to 2 µg/mL (≈ 1.68 to 3.36 µM)	< 10 µM
CS(=O)(=O)N1CCN(C(=O)NC(C(=O)N[C@H]2Cc3cccc(C(=O)O)c3OB2O)c2ccc(P(=O)(O)O)c(F)c2O)C1=O (stereo partly drawn) [Example 48, (3R)-3-(2-(3-fluoro-2-hydroxy-4-phosphonophenyl)-2-(3-(methylsulfonyl)-2-oxoimidazolidine-1-carboxamido)acetamido)-2-hydroxy-3,4-dihydro-2H-benzo[e][1,2]oxaborinine-8-carboxylic acid]	> 128 µg/mL	1 to 2 µg/mL (≈ 1.55 to 3.1 µM)	< 1 µg/mL	> 128 µg/mL	8 to 16 µg/mL (≈ 12.4 to 24.8 µM)	> 128 µg/mL	< 1 µg/mL	> 128 µg/mL	4 to 8 µg/mL (≈ 6.21 to 12.4 µM)	4 to 8 µg/mL (≈ 6.21 to 12.4 µM)	< 1 µg/mL	8 to 16 µg/mL (≈ 12.4 to 24.8 µM)	1 to 2 µg/mL (≈ 1.55 to 3.1 µM)	< 10 µM
O=C(O)c1cccc2c1OB(O)[C@@H](NC(=O)C(NC(=O)N1CCCC1=O)c1ccc(P(=O)(O)O)cc1)C2 (stereo partly drawn) [Example 57, (3R)-2-hydroxy-3-(2-(2-oxopyrrolidine-1-carboxamido)-2-(4-phosphonophenyl)acetamido)-3,4-dihydro-2H-benzo[e][1,2]oxaborinine-8-carboxylic acid]	> 128 µg/mL	< 1 µg/mL	< 1 µg/mL	> 128 µg/mL	2 to 4 µg/mL (≈ 3.76 to 7.53 µM)	32 to 64 µg/mL (≈ 60.2 to 120 µM)	< 1 µg/mL	> 128 µg/mL	4 to 8 µg/mL (≈ 7.53 to 15.1 µM)	16 to 32 µg/mL (≈ 30.1 to 60.2 µM)	< 1 µg/mL	8 to 16 µg/mL (≈ 15.1 to 30.1 µM)	1 to 2 µg/mL (≈ 1.88 to 3.76 µM)	< 10 µM
N#Cc1cccc(C(=O)N[C@@H](C(=O)N[C@H]2Cc3cccc(C(=O)O)c3OB2O)c2ccc(P(=O)(O)O)cc2)n1 [Example 180, (R)-3-((R)-2-(6-cyanopicolinamido)-2-(4-phosphonophenyl)acetamido)-2-hydroxy-3,4-dihydro-2H-benzo[e][1,2]oxaborinine-8-carboxylic acid]	> 128 µg/mL	1 to 2 µg/mL (≈ 1.82 to 3.63 µM)	< 1 µg/mL	> 128 µg/mL	2 to 4 µg/mL (≈ 3.63 to 7.27 µM)	> 128 µg/mL	< 1 µg/mL	> 128 µg/mL	1 to 2 µg/mL (≈ 1.82 to 3.63 µM)	4 to 8 µg/mL (≈ 7.27 to 14.5 µM)	< 1 µg/mL	2 to 4 µg/mL (≈ 3.63 to 7.27 µM)	< 1 µg/mL	< 10 µM
O=C(O)c1cccc2c1OB(O)[C@@H](NC(=O)C(NC(=O)c1ncccc1Cl)c1ccc(P(=O)(O)O)cc1)C2 (stereo partly drawn) [Example 183, (3R)-3-(2-(3-chloropicolinamido)-2-(4-phosphonophenyl)acetamido)-2-hydroxy-3,4-dihydro-2H-benzo[e][1,2]oxaborinine-8-carboxylic acid]	> 128 µg/mL	4 to 8 µg/mL (≈ 7.15 to 14.3 µM)	1 to 2 µg/mL (≈ 1.79 to 3.57 µM)	> 128 µg/mL	8 to 16 µg/mL (≈ 14.3 to 28.6 µM)	> 128 µg/mL	8 to 16 µg/mL (≈ 14.3 to 28.6 µM)	> 128 µg/mL	16 to 32 µg/mL (≈ 28.6 to 57.2 µM)	16 to 32 µg/mL (≈ 28.6 to 57.2 µM)	4 to 8 µg/mL (≈ 7.15 to 14.3 µM)	32 to 64 µg/mL (≈ 57.2 to 114 µM)	16 to 32 µg/mL (≈ 28.6 to 57.2 µM)	< 10 µM
O=C(NC(C(=O)N[C@H]1Cc2cccc(C(=O)O)c2OB1O)c1ccc(P(=O)(O)O)cc1)c1ccc(Cl)cn1 (stereo partly drawn) [Example 184, (3R)-3-(2-(5-chloropicolinamido)-2-(4-phosphonophenyl)acetamido)-2-hydroxy-3,4-dihydro-2H-benzo[e][1,2]oxaborinine-8-carboxylic acid]	> 128 µg/mL	< 1 µg/mL	< 1 µg/mL	> 128 µg/mL	2 to 4 µg/mL (≈ 3.57 to 7.15 µM)	> 128 µg/mL	< 1 µg/mL	> 128 µg/mL	1 to 2 µg/mL (≈ 1.79 to 3.57 µM)	4 to 8 µg/mL (≈ 7.15 to 14.3 µM)	< 1 µg/mL	8 to 16 µg/mL (≈ 14.3 to 28.6 µM)	< 1 µg/mL	< 10 µM
NC(=O)c1ccc(C(=O)NC(C(=O)N[C@H]2Cc3cccc(C(=O)O)c3OB2O)c2ccc(P(=O)(O)O)cc2)nc1 (stereo partly drawn) [Example 188, (3R)-3-(2-(5-carbamoylpicolinamido)-2-(4-phosphonophenyl)acetamido)-2-hydroxy-3,4-dihydro-2H-benzo[e][1,2]oxaborinine-8-carboxylic acid]	> 128 µg/mL	< 1 µg/mL	< 1 µg/mL	> 128 µg/mL	8 to 16 µg/mL (≈ 14.1 to 28.2 µM)	> 128 µg/mL	< 1 µg/mL	> 128 µg/mL	1 to 2 µg/mL (≈ 1.76 to 3.52 µM)	4 to 8 µg/mL (≈ 7.04 to 14.1 µM)	< 1 µg/mL	8 to 16 µg/mL (≈ 14.1 to 28.2 µM)	1 to 2 µg/mL (≈ 1.76 to 3.52 µM)	< 10 µM
CCN1CCN(C(=O)NC(C(=O)N[C@H]2Cc3cccc(C(=O)O)c3OB2O)c2ccc(S(=O)(=O)O)cc2)C(=O)C1=O (stereo partly drawn) [Example 189, (3R)-3-(2-(4-ethyl-2,3-dioxopiperazine-1-carboxamido)-2-(4-sulfophenyl)acetamido)-2-hydroxy-3,4-dihydro-2H-benzo[e][1,2]oxaborinine-8-carboxylic acid]	32 to 64 µg/mL (≈ 54.4 to 109 µM)	< 1 µg/mL	< 1 µg/mL	> 128 µg/mL	< 1 µg/mL	32 to 64 µg/mL (≈ 54.4 to 109 µM)	< 1 µg/mL	> 128 µg/mL	1 to 2 µg/mL (≈ 1.7 to 3.4 µM)	4 to 8 µg/mL (≈ 6.8 to 13.6 µM)	< 1 µg/mL	2 to 4 µg/mL (≈ 3.4 to 6.8 µM)	1 to 2 µg/mL (≈ 1.7 to 3.4 µM)	< 10 µM
